Where a name gives a salt, the structure may show the parent alone.

A word on the EC50: it is the concentration needed to bring the measured effect to its halfway point.

Tested on in the first assay: not given
Experiment: not given
The following applies: in vivo; cited from earlier work.
Turning to `CC(C)[C@@H]1CC[C@@H](C)C[C@H]1O` [L-menthol], the “cooling threshold (concentration where the cooling effect could be clearly recognized)” value (shortened to “cooling threshold”) was “about 800 ppb”.

As for `CC(C)[C@@H]1CC[C@@H](C)C[C@@H]1O` [Molecule 1-neomenthol, 1-neomenthol], the “cooling threshold” value was “about 3,000 ppb”. On to `CC(C)[C@@H]1CC[C@@H](C)C[C@@H]1O` [d-neomenthol], for which the “cooling threshold” value is reported as “about 25,000 ppb”.

A further assay addresses human TRPM8. Kind of assay: TRPM8 Protocol-FLIPR Assay (EC50 analysis of sensate analogs using TRPM8 activation). Type of assay: cell-based. The conditions noted are these: HEK-293 cells stably transfected with human TRPM8, intracellular Ca2+ by Fluo-4 AM fluorescence. As for the experimental part:
(§1) The term “TRPM8 agonist”, as used herein, refers to any compound, which when added to a TRPM8 receptor, according to the FLIPR method, as discussed herein, produces any increase in fluorescence over background.
(§2) TRPM8 Protocol-FLIPR Assay
(§3) To determine whether TRPM8 is activated, the intracellular calcium ion (Ca^2+) level was measured from transfected cells with the TRPM8 receptor sequence (SEQ ID NO:). […] Trypsin was inactivated by addition of 8 ml growth medium. Cells were transferred to a 50 ml tube and centrifuged at 850 rpm for 3 minutes to remove medium. After centrifugation, a pellet of cells was formed in the bottom of the tube separating them from the supernatant solution. […] Fluo-4 AM is a fluorescent dye used for quantifying cellular Ca^2+ concentrations in the 100 nM to 1 microM range. At the end of 30 minutes, 45 ml of assay buffer (1× HBSS (Hank's Balanced Salt Solution), 20 mM HEPES (4-(2-Hydroxyethyl)-1-piperazineethanesulfonic acid)) was added to wash cells and the resulting mixture was then centrifuged at 850 rpm for 3 minutes to remove excess buffer and Fluo-4 AM calcium indicator.
(§4) The pelleted cells were re-suspended in 10 ml assay buffer and 90 μl aliquots (50,000 cells) per well delivered to a 96-well assay plate containing 10 μl of test compounds (1 mM in assay buffer, final concentration 100 μM) or buffer control and incubated at room temperature for 30 minutes. After 30 minutes, a plate was placed into a fluorometric imaging plate reader (FLIPR384 from Molecular Devices, Sunnyvale, Calif.) and basal fluorescence recorded (excitation wave length 488 nm and emission wave length 510 nm). Then 20 μl of 100 mM of TRPM8 agonist WS5 coolant in the assay buffer was added and fluorescence recorded. For determining the direct effect of test compounds on TRPM8, fluorescence was measured immediately after addition of each compound (TABLE 7).
As to `CC(C)[C@@H]1CC[C@@H](C)C[C@H]1C(=O)NC[C@@H](NC(=O)CN)c1ccccc1Cl`, the concentration for a half-maximal effect (EC50) stood at 20 nM. `CC(C)[C@@H]1CC[C@@H](C)C[C@H]1C(=O)NC[C@@H](NC(=O)[C@H](C)N)C1CCCCC1`: the 50% effective concentration (EC50) was found to be 28.3 nM. Take `CC(C)[C@@H]1CC[C@@H](C)C[C@H]1C(=O)NC[C@@H](NC(=O)[C@H](C)N)c1ccccc1` [Example 7]: the response was half-maximal at 9 nM (EC50).

Turning to `CC(C)[C@@H]1CC[C@@H](C)C[C@H]1C(=O)NC[C@H](Cc1ccccc1)NC(=O)CN` [Example 16], the concentration for a half-maximal effect (EC50) was determined as 58 nM. In the case of `CC(C)[C@@H]1CC[C@@H](C)C[C@H]1C(=O)NC[C@H](O)c1ccccc1` [Example 29], a half-maximal response (EC50) required 374 nM. Turning to `CC(C)[C@@H]1CC[C@@H](C)C[C@H]1C(=O)NCCNC(=O)CNC(=O)OC(C)(C)C` [Example 49, tert-butyl (2-((2-((1R,2S,5R)-2-isopropyl-5-methylcyclohexane-1-carboxamido)ethyl)amino)-2-oxoethyl)carbamate], the EC50 is 40000 nM. Same read-out and setting: the same measure for `CC(C)[C@@H]1CC[C@@H](C)C[C@H]1C(=O)NC[C@@H](NC(=O)[C@H](C)N)c1ccccc1` [Molecule 2]: 2.7 nM.

Staying with this assay, now noted: HEK-293 cells stably transfected with human TRPM8, unit inferred.
`CC(C)[C@@H]1CC[C@@H](C)C[C@H]1C(=O)NC[C@@H](NC(=O)[C@H](C)NC(=O)OC(C)(C)C)c1ccccc1` [Example 43, dihydrochloride] returned an EC50 of 3000 nM.

The molecule `CC(C)[C@@H]1CC[C@@H](C)C[C@H]1C(=O)NC[C@@H](NC(=O)CN)c1ccccc1` [Molecule 1] came in with an EC50 of under 2 nM.

Another assay addresses human TRPM8 (UniProt Q8R4D5). The description is as above. It counts as cell-based. The following applies: HEK-293 cells stably transfected with human TRPM8, intracellular Ca2+ by Fluo-4 AM fluorescence. The protocol:
as §1, §2, §3, §4
With `CC(C)[C@@H]1CC[C@@H](C)C[C@H]1C(=O)NC[C@@H](N)c1ccccc1Cl` [Example 34, hydrochloride], it took 770 nM to reach a half-maximal effect (EC50). As to `CC(C)[C@@H]1CC[C@@H](C)C[C@H]1C(=O)NC[C@H](NC(=O)OC(C)(C)C)c1ccccc1` [Molecule 52], the “TRPM8 (EC50 values)” value is on record as “Too high to measure”. With `CC(C)[C@@H]1CC[C@@H](C)C[C@H]1C(=O)NCCNC(=O)[C@@H]1C[C@H](C)CC[C@H]1C(C)C` [Molecule 53], the “TRPM8 (EC50 values)” value is “Too high to measure”. Consider `CCCCCCCCCCCCCCCC(=O)N[C@H](CNC(=O)[C@@H]1C[C@H](C)CC[C@H]1C(C)C)c1ccccc1` [Molecule 54], for which the “TRPM8 (EC50 values)” value is on record as “Too high to measure”.

With `CC(C)[C@@H]1CC[C@@H](C)C[C@H]1C(=O)NC[C@@H](NC(=O)[C@@H](N)Cc1ccccc1)c1ccccc1` [Molecule 55], the “TRPM8 (EC50 values)” value is “Too high to measure”. On to `CC(C)[C@@H]1CC[C@@H](C)C[C@H]1C(=O)NCCN(CCN)CCN.Cl.Cl` [Molecule 56], for which the “TRPM8 (EC50 values)” value was “Too high to measure”.

With `CC(C)[C@@H]1CC[C@@H](C)C[C@H]1C(=O)NC[C@H](NC(=O)[C@@H](C)NC(=O)OC(C)(C)C)c1ccccc1` [Molecule 57], the “TRPM8 (EC50 values)” value is listed as “Too high to measure”. `CC(C)[C@@H]1CC[C@@H](C)C[C@H]1C(=O)NC[C@@H](NC(=O)OC(C)(C)C)c1ccccc1` [Molecule 58]: the “TRPM8 (EC50 values)” value is reported as “Too high to measure”.

As for `CC(C)[C@@H]1CC[C@@H](C)C[C@H]1C(=O)NC[C@@H](NC(=O)[C@@H](C)NC(=O)OC(C)(C)C)c1ccccc1` [Molecule 59], the “TRPM8 (EC50 values)” value is listed as “Too high to measure”.

Tested on in a further assay: not listed separately
Kind of assay: Sensory evaluation of coolant activity: panelists brushed with dentifrice and rated cooling intensity. Type of assay: in vivo, human. The conditions noted are these: dentifrice, up to 12 hours after brushing. The protocol:
Dentifrices were prepared using conventional methods, such as the protocols described in U.S. Pat. No. 8,747,814, which contained no coolant (SAMPLE A) or having a coolant from TABLE 7 (SAMPLES B and C), in a flavor (peppermint) at 10 parts per million (ppm).
Sensory evaluation studies of coolant activity were conducted using a methodology patterned after the techniques described in M.C. Meilgaard, et al., Sensory Evaluation Techniques, 4th Ed. (2007). Five panelists brushed with a dentifrice from TABLE 8, having no coolant (SAMPLE A) or having a coolant from TABLE 7 (SAMPLES B and C), for two minutes, in a flavor (peppermint) at 10 parts per million (ppm). After brush expectoration, panelists then rinsed their mouth with 15 ml of an aqueous rinse and expectorated.
Turning to `CC(C)[C@@H]1CC[C@@H](C)C[C@H]1C(=O)NC[C@@H](NC(=O)[C@@H](C)N)c1ccccc1` [Molecule 17, (1R,2S,5R)-N-((S)-2-((R)-2-Aminopropanamido)-2-phenylethyl)-2-isopropyl-5-methylcyclohexane-1-carboxamide], the “cooling response over time after brushing (summary of TABLE 9)” value is “high cooling over the course of 12 hours”.

Take `CC(C)[C@@H]1CC[C@@H](C)C[C@H]1C(=O)NC[C@H](NC(=O)[C@@H](C)N)c1ccccc1` [Molecule 33, (1R,2S ,5R)-N-((R)-2-((R)-2-Aminopropanamido)-2-phenylethyl)-2-isopropyl-5-methylcyclohexane-1-carboxamide]: the “cooling response over time after brushing (summary of TABLE 9)” value is given as “trailed off after 30 minutes”.

Source of the values: US20180312463A1 (The Procter & Gamble Company, priority 2015, published 2018).
